Data on ten compounds can be found in US10973820B2, “Compounds for treatment of diseases related to DUX4 expression” (Facio Intellectual Property B.V., priority 2017, dated 2021).

Read-outs that look alike come from different tables or passages of the source. A value given as a limit tells only on which side of the number the result lay.

One assay addresses p38 (Homo sapiens, UniProt Q16539). The assay can be described thus: inhibition of p38 by CK1 inhibitors. The class given is biochemical. The note with it: p38α.
The target in another assay is CK1 δ (Homo sapiens, UniProt P48730). The experiment in a line: inhibition of CK1 δ by CK1 inhibitors. The class given is biochemical. From the text:
(§1) Suitable assays can use a peptide substrate and a readout method, for example using the Kinase-Glo assay (Promega, part # V672A).

Assay [1] relates to DUX4. The assay can be described thus: DUX4 repression, high-content immunocytochemistry assay in primary FSHD myotubes. It counts as cell-based, human. The note with it: for EC50: Homo sapiens, Myotube, read-out: EC50 DUX4. An excerpt:
A quantitative assay readout was developed based on script-based image analysis. […] To analyse the images, an automated script was developed, enabling the detection of nuclei, myotube borders and DUX4 signals, with the script also detecting artefacts to reduce false positive signals. The script enabled multiple validated readouts including the number of DUX4 positive nuclei and nuclei clusters, the fusion index, myotube area, myotube width and myotube skeleton length (see FIG. 2). Additionally, the total nuclei count was included as a measure of cell loss or compound toxicity.
A compound library containing approximately 5000 annotated compounds was screened in the high-content assay. For this purpose, primary myoblasts were seeded in 384 well plates after which the growth medium was replaced with differentiation medium. After 3 days of differentiation, cells were treated with library compounds (in duplicate on different screening plates) for 15 h, after which they were fixed and stained with antibodies against DUX4, antibodies against myosin heavy chain (MHC), and with DAPI (4′,6-diamidino-2-phenylindole). Script-based analysis provided readouts for DUX4 expression (count of DUX4-positive nuclei or DUX4 intensity) and for potential toxicity (fusion index and nuclei count).
Compounds were incubated with primary FSHD cells for 15 hours, as indicated by the arrow in FIG. 4A.
Compounds are administered either 15 h before fixation, resembling the original screening protocol, or 72 h before fixation (grey arrow). In the latter case, compounds are present during the whole differentiation process.

The next assay deals with CK1 ε (Homo sapiens, UniProt P49674). The experiment in a line: inhibition of CK1 ε by CK1 inhibitors. The class given is biochemical.
Text: as §1

Another assay addresses CK1 α (Homo sapiens, UniProt P48729). The assay can be described thus: inhibition of CK1 α by CK1 inhibitors. The class given is biochemical. An excerpt:
IC50 values for CK1 can be determined using any method known in the art, for example as described in WO2011051858, WO2015119579, EP2949651, or US2005/0131012. Suitable assays can use a peptide substrate and a readout method, for example using the Kinase-Glo assay (Promega, part # V672A).

The next assay relates to pancreatic tumor cell. The note with it: in vitro and in vivo; cited from earlier work.
Assay [2] has as its system DUX4. The note with it: immortalised differentiated myotube cultures; cited from earlier work.
The mark [3] stands for this setting: primary FSHD cells, compound incubation 15 hours.

CK1 ε, sequence (P49674 whole entry): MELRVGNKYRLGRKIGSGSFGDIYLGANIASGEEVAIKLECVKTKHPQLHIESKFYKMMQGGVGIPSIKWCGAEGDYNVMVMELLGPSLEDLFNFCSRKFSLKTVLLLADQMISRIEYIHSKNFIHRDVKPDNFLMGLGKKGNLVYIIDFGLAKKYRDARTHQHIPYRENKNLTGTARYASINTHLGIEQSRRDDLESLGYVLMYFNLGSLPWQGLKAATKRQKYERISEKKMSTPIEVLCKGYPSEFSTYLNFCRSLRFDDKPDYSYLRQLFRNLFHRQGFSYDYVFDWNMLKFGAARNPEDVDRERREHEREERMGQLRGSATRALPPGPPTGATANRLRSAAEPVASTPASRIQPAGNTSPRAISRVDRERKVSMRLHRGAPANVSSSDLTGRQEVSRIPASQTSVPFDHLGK
CK1 δ, sequence (P48730 whole entry): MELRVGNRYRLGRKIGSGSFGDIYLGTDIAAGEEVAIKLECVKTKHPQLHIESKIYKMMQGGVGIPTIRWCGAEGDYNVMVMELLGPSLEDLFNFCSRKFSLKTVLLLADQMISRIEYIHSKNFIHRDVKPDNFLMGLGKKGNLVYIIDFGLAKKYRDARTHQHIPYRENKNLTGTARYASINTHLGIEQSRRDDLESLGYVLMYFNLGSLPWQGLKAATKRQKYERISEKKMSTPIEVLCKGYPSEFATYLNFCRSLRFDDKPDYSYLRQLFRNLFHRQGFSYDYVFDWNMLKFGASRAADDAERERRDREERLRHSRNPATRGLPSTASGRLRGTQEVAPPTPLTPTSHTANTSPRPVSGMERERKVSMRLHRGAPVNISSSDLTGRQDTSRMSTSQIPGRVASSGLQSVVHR
CK1 α, sequence (P48729 whole entry): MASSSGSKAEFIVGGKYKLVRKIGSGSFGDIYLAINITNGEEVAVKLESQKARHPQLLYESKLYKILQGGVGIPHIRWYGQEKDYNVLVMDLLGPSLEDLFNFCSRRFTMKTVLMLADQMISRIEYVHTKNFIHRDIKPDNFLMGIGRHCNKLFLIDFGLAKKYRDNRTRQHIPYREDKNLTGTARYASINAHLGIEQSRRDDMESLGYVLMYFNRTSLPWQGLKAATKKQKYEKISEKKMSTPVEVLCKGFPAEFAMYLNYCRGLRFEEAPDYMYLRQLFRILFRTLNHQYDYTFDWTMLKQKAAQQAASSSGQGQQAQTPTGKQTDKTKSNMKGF
p38, sequence (Q16539 whole entry): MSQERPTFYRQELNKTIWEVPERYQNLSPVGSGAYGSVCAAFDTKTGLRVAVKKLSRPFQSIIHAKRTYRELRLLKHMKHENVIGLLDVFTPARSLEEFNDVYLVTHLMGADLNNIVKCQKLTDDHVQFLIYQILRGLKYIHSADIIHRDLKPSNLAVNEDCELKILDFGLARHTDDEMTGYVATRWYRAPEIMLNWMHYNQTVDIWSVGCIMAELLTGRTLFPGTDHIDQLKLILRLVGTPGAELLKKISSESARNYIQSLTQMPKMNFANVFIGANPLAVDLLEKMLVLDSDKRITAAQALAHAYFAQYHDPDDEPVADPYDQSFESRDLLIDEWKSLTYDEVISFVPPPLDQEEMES

Consider `Cn1cc(-c2ccnc3c2C(=O)N(C2CCOCC2)C3)c(-c2ccc(F)cc2)n1` [Compound F], for which the IC50 (commonly the concentration at which inhibition is half-maximal) was found to be 677 nM against p38, 18 nM at CK1 δ, 72 nM on CK1 ε and 561 nM at CK1 α. Moreover, the concentration giving a half-maximal response (EC50) – broadly, the concentration at which the effect is half-maximal – with DUX4 [1] (setting [3]) came to 2590 nM.

Take `Fc1cccc(-n2cnc3c(NCc4nc5ccc(F)c(F)c5[nH]4)nc(N4CCOCC4)nc32)c1` [SR-3029, reference compound]: the half-inhibitory concentration (IC50) against p38 and on CK1 α was more than 10000 nM in each case. The EC50 in the assay with DUX4 [1] (15 h) was 50 nM.

In the case of `Nc1nccc(-c2c(-c3ccc(F)cc3)ncn2C2CCN(Cc3ccon3)CC2)n1` [PF-5006739, reference compound], the IC50 worked out at 74 nM against p38, 20 nM on CK1 δ, 27 nM on CK1 ε and 123 nM at CK1 α. In the assay with DUX4 [1] (setting [3]), the EC50 turned out to be 820 nM.

On to `Nc1nccc(-c2c(-c3ccc(F)cc3)ncn2C2CCCCC2)n1` [PF-670462, reference compound], for which the IC50 at p38 turned out to be 32 nM; at CK1 α it was 320 nM. For the same compound, the concentration giving a half-maximal response (EC50) with DUX4 [1] (setting [3]) stood at 470 nM.

Consider `CN1Cc2nccc(-c3cn(C)nc3-c3ccc(F)cc3)c2C1=O` [Compound E], for which the IC50 against p38 was found to be 1110 nM; against CK1 α, 592 nM. The concentration for a half-maximal effect (EC50) in the assay with DUX4 [1] (15 h) is 1890 nM.

Consider `Fc1ccc(-c2nc3ccc(N4CCNCC4)nn3c2-c2ccncc2)cc1` [Compound H], for which the concentration for half-maximal inhibition (IC50) on p38 stood at 25 nM; on CK1 δ it was 22 nM; at CK1 ε, 16 nM; on CK1 α, 33 nM. In addition, the EC50 in the assay with DUX4 [1] (setting [3]) was 10 nM.

For the compound `Cn1cc(-c2ccnc3c2C(=O)OC3)c(-c2ccc(F)cc2)n1` [Compound D], the 50% inhibitory concentration (IC50) against p38 worked out at 569 nM; against CK1 δ it was 33.1 nM; against CK1 ε it was 51.6 nM; at CK1 α, 644 nM. The concentration for a half-maximal effect (EC50) in the assay on DUX4 [1] (setting [3]) is 1410 nM.

For `COc1cc(OC)c(C=C2C(O)=Nc3ccccc32)c(OC)c1` [IC261], in the assay on pancreatic tumor cell, the “pancreatic tumor cell growth” value is “reduces pancreatic tumor cell growth”.

For `COc1cc(OC)c2c(=O)[nH]c(-c3cc(C)c(OCCO)c(C)c3)nc2c1` [RVX-208, reference compound], the “effect on DUX4 expression” value in the assay with DUX4 [1] (irrespective of treatment time (15 h or 72 h)) is “did not show any effect on DUX4 expression”. Also, the “expression of DUX4” value with DUX4 [2] is given as “can inhibit the expression of DUX4”.

With `CC1(C)CN(c2ccc3nc(-c4ccc(F)cc4)c(-c4ccncc4)n3n2)CCN1` [Compound A], the IC50 worked out at 13 nM at p38, 19 nM against CK1 δ, 12 nM at CK1 ε and 30 nM at CK1 α. In the assay on DUX4 [1] (setting [3]), the half-maximal effective concentration (EC50) was 50 nM.
